Laboratory results: patent US20180243421A1, “IMMUNOSTIMULATING AGENT” (AJINOMOTO CO., INC., priority 2015, published 2018)
Blank lines part the entries; values can stand above or below the compound they belong to.

Key:
[1] = tested on: anti-OVA-specific IgE antibody; settings: mouse, in vivo
Experimental: The serum sample obtained in Example 1 was measured for an anti-OVA-specific IgE antibody. The measurement method of the anti-OVA-specific IgE antibody in Example 3 and Examples 6, 9 is as follows.
Measurement Method of anti-OVA-specific IgE Antibody
DS mouse IgE ELISA (OVA) kit manufactured by DS Pharma Biomedical Co., Ltd. was used. The protocol is briefly shown below.
The serum sample and a standard reagent for drawing an analytical curve are diluted with a buffer and, after stirring, left standing at room temperature for 10 min. The sample and the standard solution are added to a plate bound with an IgE capture antibody in advance and, after stirring, the mixture is left standing at room temperature for 60 min. The mixture is washed three times with wash, HRP-labeled OVA is added, and the mixture is left standing at room temperature for 30 min. The mixture is washed three times with wash, a substrate solution is added, and the mixture is left standing in dark at room temperature for 30 min. A reaction quenching liquid is added, the mixture is stirred, and the absorbance (OD Value=450 nm) is immediately measured.
This test was performed in the same manner as in Example 3 except that N^2-hexadecanoyl-L-arginine (SZ61), N-hexadecanoylagmatine (SZ62), N^2-hexadecanoyl-L-arginine methyl ester hydrochloride (SZ63), N^2-octadecanoyl-L-glutamine tert-butyl ester (SZ64), and N^2-octadecanoyl-L-glutamine (SZ65) were used.
This test was performed in the same manner as in Example 6 except that N-hexadecanoylagmatine (SZ62), N^2-octadecanoyl-L-glutamine tert-butyl ester (SZ64), N-docosanoyl-L-leucine methyl ester (SZ70), and N-docosanoyl-L-phenylalanine methyl ester (SZ71) were used and a positive control adjuvant Addavax™ (InvivoGen) administration group was formed.
(§1) The allergy inducing activity test was performed in the same manner as in Example 3 except that Addavax™, N-(2-octadecyleicosanoyl)-L-leucine methyl ester (SZ86), N-hexadecanoyl-L-leucinamide (SZ90), N^2-hexadecanoyl-N^1,N^1-diethyl-L-leucinamide (SZ92), N^2-hexadecanoyl-L-arginine hexyl ester hydrochloride (SZ99) and N^2-docosanoyl-N^1,N^1-diethyl-L-glutamic acid 1-amide (SZ106) were used.
as §1, with “N-hexadecanoyl-L-leucine” for “N^2-hexadecanoyl-L-arginine”, “(SZ97),” for “hydrochloride (SZ99) and”, “(SZ106) and N-docosanoylagmatine hydrochloride (SZ108)” for “(SZ106)”
8-Week-old female BALB/c mice were divided into groups (N=6), and each group was primarily immunized by dorsal-subcutaneous administration of (1) ovalbumin (OVA) (5 μg) dissolved in saline as an antigen (OVA single administration group), (2) OVA (10 μg) and aluminum hydroxide salt dissolved in saline (Alum administration group), (3) OVA 10 μg and Addavax™ (mixed with saline at 1:1) dissolved in saline (Addavax™ administration group), (4) OVA 10 μg and CpG 5 μg dissolved in saline (CpG administration group), (5) OVA 10 μg and MPL 5 μg dissolved in saline (MPL administration group), (6) OVA (5 μg) and SZ62 (0.256 μmol) dissolved or dispersed in 5% αCD-added saline (SZ62 administration group), (7) OVA (5 μg), SZ62 (0.256 μmol) and CpG 5 μg dissolved or dispersed in 5% αCD-added saline (SZ62+CpG administration group), (8) OVA 10 μg, Addavax™ (mixed with saline at 1:1) and CpG 5 μg dissolved in saline (Addavax™+CpG administration group), (9) OVA (5 μg), SZ62 (0.256 μmol) and MPL 5 μg dissolved or dispersed in 5% αCD-added saline (SZ62+MPL administration group), (10) OVA (10 μg), aluminum hydroxide salt (Alum) and MPL 5 μg dissolved in saline (Alum+MPL administration group), each per mouse. One week later, the secondary immunization was carried out by dorsal-subcutaneous administration of solutions or dispersions similar to those of the above-mentioned (1) to (10) again.

[2] = tested on: anti-OVA-specific IgG1 subclass antibody; test: Adjuvant activity: anti-OVA-specific IgG1 subclass antibody in serum after secondary immunization (Examples 1, 5, 7, 8; ELISA absorbance); type: in vivo, BALB/c mice; settings: Example 7
Experimental: Two weeks from the secondary immunization, the whole blood was extracted under anesthesia, and the obtained serum sample was measured for anti-OVA-specific IgG1 subclass antibody.
A method for measurement of the anti-OVA-specific IgG1 subclass antibody in Example 1, and the following Examples 5, 7 and 8 is as follows.
Measurement Method of anti-OVA-specific IgG1 Subclass Antibody
To a 96 well plate was added 5 μg/ml OVA at 100 μl/well, and the mixture was incubated at 4° C. overnight. After incubation, the mixture was washed three times with 200 μl of PBS-T (PBS+0.05%(v/v) Tween 20) per well, and blocked with 100 μl of 5% FCS/PBS solution per well at room temperature for 1 to 2 hr. Thereafter, the mixture was washed three times with PBS-T (200 μl/well), a diluted serum sample (100 μl/well) or the same amount of 5% FCS/PBS solution as a control was added, and the mixture was incubated at 37° C. for 1 hr. Thereafter, the mixture was washed five times with PBS-T (200 μl/well), a diluted biotinylated anti-mouse IgG1 antibody (100 μl/well) was added, and the mixture was incubated at 37° C. for 45 min. Thereafter, the mixture was washed five times with PBS-T (200 μl/well), a diluted anti-biotin-HRP antibody was added (100 μl/well), and the mixture was incubated at 37° C. for another 30 min. Thereafter, the mixture was washed five times with PBS-T (200 μl/well), TMB substrate solution was added (100 μl/well), and the mixture was incubated at room temperature for 10 to 15 min. Thereafter, a reaction quenching liquid (2N sulfuric acid solution) was added (50 μl/well) to discontinue a color developing reaction, and the absorbance (OD Value=450 nm) was measured by a microplate reader.

[3] = tested on: anti-OVA-specific IgG1 subclass antibody; test: Adjuvant activity after primary immunization: anti-OVA-specific IgG1 subclass antibody in serum (Examples 13-18); type: in vivo, BALB/c mice; settings: OVA 5 μg + 0.256 μmol in 5% αCD saline s.c., serum after 12 days; for anti-OVA-specific IgG1 subclass antibody production after primary immunization: Example 13
Experimental: 8-Week-old female BALB/c mice were divided into groups (N=6), and each group was primarily immunized by dorsal-subcutaneous administration of (1) ovalbumin (OVA) (5 μg) dissolved in saline as an antigen (OVA single administration group), (2) OVA (5 μg) and SZ83 (0.256 μmol) dissolved or dispersed in 5% αCD-added saline (SZ83 administration group), (3) OVA (5 μg) and SZ84 (0.256 μmol) dissolved or dispersed in 5% αCD-added saline (SZ84 administration group), (4) OVA (5 μg) and SZ86 (0.256 μmol) dissolved or dispersed in 5% αCD-added saline (SZ86 administration group), (5) OVA (5 μg) and SZ89 (0.256 μmol) dissolved or dispersed in 5% αCD-added saline (SZ89 administration group), (6) OVA (5 μg) and SZ90 (0.256 μmol) dissolved or dispersed in 5% αCD-added saline (SZ90 administration group), each per mouse. After 12 days, blood samples were collected under anesthesia, and the obtained serum samples were subjected to the measurement of an anti-OVA-specific IgG1 subclass antibody.
Measurement Method of Concentration of anti-OVA-specific IgG1 Subclass Antibody and anti-OVA-specific IgG2a Subclass Antibody
To a 96 well plate was added 5 μg/ml OVA at 100 μl/well, and the mixture was incubated at 4° C. overnight. After incubation, the mixture was washed three times with 200 μl of PBS-T (PBS+0.05% (v/v) Tween 20) per well, and blocked with 100 μl of 5% FCS/PBS solution per well at room temperature for 1 to for 2 hr. Thereafter, the mixture was washed three times with PBS-T (200 μl/well), a diluted serum sample (100 μl/well) or the same amount of 5% FCS/PBS solution as a control was added, to and the mixture was incubated at 37° C. for 1 hr. To calculate concentration of the antibody, the standard of an anti-OVA-specific IgG1 subclass antibody diluted with 2% FCS/PBS solution was added at 100 ng/ml, 50 ng/ml, 25 ng/ml, 12.5 ng/ml, 6.25 ng/ml, 3.125 ng/ml, 1.56 ng/ml, 0.781 ng/ml, 0.391 ng/ml, 0.195 ng/ml, 0.098 ng/ml, 0 ng/ml, per 1 well. When an anti-OVA-specific IgG2a subclass antibody was measured, the standard of an anti-OVA-specific IgG2a subclass antibody was added at 50 ng/ml, 25 ng/ml, 12,5 ng/ml, 6.25 ng/ml, 3.125 ng/ml, 1.56 ng/ml, 0.781 ng/ml, 0.391 ng/ml, 0.195 ng/ml, 0.098 ng/ml, 0.049 ng/ml, 0 ng/ml, per 1 well. […] Thereafter, the mixture was washed five times with PBS-T (200 μl/well), a diluted anti-biotin-HRP antibody was added (100 μl/well), and the mixture was incubated at 37° C. for another 30 min. Thereafter, the mixture was washed five times with PBS-T (200 μl/well), TMB substrate solution was added (100 μl/well), and the mixture was incubated at room temperature for 10- for 15 min. Thereafter, a reaction quenching liquid (2N sulfuric acid solution) was added (50 μl/well) to discontinue a color developing reaction, and the absorbance (OD Value=450 nm) was measured by a microplate reader. A standard curve was drawn from the measured OD values, and the concentration was calculated.
8-Week-old female BALB/c mice were divided into groups (N=6), and each group was primarily immunized by dorsal-subcutaneous administration of (1) ovalbumin (OVA) (5 μg) dissolved in saline as an antigen (OVA single administration group), (2) OVA (5 μg) and SZ92 (0.256 μmol) dissolved or dispersed in 5% αCD-added saline (SZ92 administration group), (3) OVA (5 μg) and SZ94 (0.256 μmol) dissolved or dispersed in 5% αCD-added saline (SZ94 administration group), (4) OVA (5 μg) and SZ95 (0.256 μmol) dissolved or dispersed in 5% αCD-added saline (SZ95 administration group), (5) OVA (5 μg) and SZ96 (0.256 μmol) dissolved or dispersed in 5% αCD-added saline (SZ96 administration group), each per mouse. After 12 days, blood samples were collected under anesthesia, and the obtained serum samples were subjected to the measurement of anti-OVA-specific IgG1 subclass antibody.

allergy inducing activity as compared to aluminum hydroxide gel adjuvant and Addavax [1]: lower allergy inducing activity
Compound: CCCCCCCCCCCCCCCCCCCCCC(=O)N[C@@H](Cc1ccccc1)C(=O)OC [SZ71, N-docosanoyl-L-phenylalanine methyl ester]
adjuvant activity (IgG1) compared with Alum [2]: equivalent to or not less than that of Alum
anti-OVA-specific IgG1 subclass antibody production compared with Alum [2]: equivalent to or not less than that of Alum
anti-OVA-specific IgG1 subclass antibody production as compared to the OVA single administration group ([2]; same manner as Example 1, plus Addavax group): a significant difference was not found

Compound: COC(=O)[C@H](CC(C)C)NC(C)=O [SZ83, N-acetyl-L-leucine methyl ester]
anti-OVA-specific IgG1 subclass antibody production after primary immunization [3]: show a tendency to increase

Compound: CCCCCC(=O)N[C@@H](CC(C)C)C(=O)OC [SZ84, N-hexanoyl-L-leucine methyl ester]
anti-OVA-specific IgG1 subclass antibody production after primary immunization [3]: show a tendency to increase

Compound: CCCCCCCCCCCCCCCC(=O)N[C@@H](CC(C)C)C(=O)OC(C)(C)C [SZ89, N-hexadecanoyl-L-leucine tert-butyl ester]
anti-OVA-specific IgG1 subclass antibody production after primary immunization [3]: show a tendency to increase

Compound: CCCCCCCCCCCCCCCC(=O)N[C@@H](Cc1c[nH]cn1)C(=O)OC [SZ94, N-hexadecanoyl-L-histidine methyl ester]
anti-OVA-specific IgG1 subclass antibody production after primary immunization as compared to the OVA single administration group ([3]; Example 14): tended to increase

Compound: CCCCCCCCCCCCCCCC(=O)N1CCC[C@H]1C(=O)OC [SZ95, N-hexadecanoyl-L-proline methyl ester]
anti-OVA-specific IgG1 subclass antibody production after primary immunization as compared to the OVA single administration group ([3]; Example 14): tended to increase

Compound: CCCCCCCCCCCCCCCC(=O)N[C@@H](CO)C(=O)OC [SZ96, N-hexadecanoyl-L-serine methyl ester]
anti-OVA-specific IgG1 subclass antibody production after primary immunization as compared to the OVA single administration group ([3]; Example 14): tended to increase

Compound: CCCCCCCCCCCCCCCC(=O)N[C@@H](CCCNC(=N)N)C(=O)N(CC)CC.Cl [SZ110, N^2-hexadecanoyl-N^1,N^1-diethyl-L-arginine amide hydrochloride salt]
anti-OVA-specific IgG1 subclass antibody production after primary immunization as compared to the OVA single administration group ([3]; Example 16): tended to increase

Compound: CCCCCCCCCCCCCCCCCCCCCC(=O)N[C@@H](CCCNC(=N)N)C(=O)OCCCCCC.Cl [SZ121, N^2-docosanoyl-L-arginine hexyl ester hydrochloride salt]
anti-OVA-specific IgG1 subclass antibody production after primary immunization as compared to the OVA single administration group ([3]; Example 17): significantly increased

Compound: CCCCCCCCCCCCCCCCCCCCCC(=O)N[C@@H](CC(C)C)C(=O)OCCCCCC [SZ124, N-docosanoyl-L-leucine hexyl ester]
anti-OVA-specific IgG1 subclass antibody production after primary immunization as compared to the OVA single administration group ([3]; Example 17): tended to increase

Compound: CCCCCCCCCCCCCCCCCCCCCC(=O)N[C@@H](CC(C)C)C(=O)N(CC)CC [SZ125, N^2-docosanoyl-N^1,N^1-diethyl-L-leucinamide]
anti-OVA-specific IgG1 subclass antibody production after primary immunization as compared to the OVA single administration group ([3]; Example 17): tended to increase
